According to ChEMBL document CHEMBL1201861, “Genomics of Drug Sensitity in Cancer screening data, Wellcome Trust Sanger Institute”:

Key:
Assay in all cases: cells
COLO-829 = assay type: functional, cell-based, Homo sapiens; conditions: Homo sapiens, COLO-829
Description: SANGER: Inhibition of human COLO-829 cell growth in a cell viability assay.

EKVX = assay type: functional, cell-based, Homo sapiens; conditions: Homo sapiens, EKVX;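 also: growth inhibition of human EKVX cells, read out with a cell viability assay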
Description: SANGER: Inhibition of human EKVX cell growth in a cell viability assay.

ES8 = assay type: functional, cell-based, Homo sapiens; conditions: Homo sapiens, ES8;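 also: growth inhibition of human ES8 cells, read out with a cell viability assay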
Description: SANGER: Inhibition of human ES8 cell growth in a cell viability assay.

EW-16 = assay type: functional, cell-based, Homo sapiens; conditions: Homo sapiens, EW-16;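 also: growth inhibition of human EW-16 cells, read out as cell viability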
Description: SANGER: Inhibition of human EW-16 cell growth in a cell viability assay.

GAK = assay type: functional, cell-based, Homo sapiens; conditions: Homo sapiens, GAK;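 also: cell growth inhibition read out by a cell viability assay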
Description: SANGER: Inhibition of human GAK cell growth in a cell viability assay.

GI-ME-N = assay type: functional, cell-based, Homo sapiens; conditions: Homo sapiens, GI-ME-N;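 also: growth inhibition of human GI-ME-N cells, read out with a cell viability assay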
Description: SANGER: Inhibition of human GI-ME-N cell growth in a cell viability assay.

HCC2218 = assay type: functional, cell-based; conditions: Homo sapiens;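 also: cell viability assay read-out, with IC50 given as the concentration that inhibits growth of the cell line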
Description: SANGER: Inhibition of human HCC2218 cell growth in a cell viability assay.

HCE-T = assay type: functional, cell-based, Homo sapiens; conditions: Homo sapiens, HCE-T;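 also: cell viability assay read-out, reporting inhibition of HCE-T cell growth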
Description: SANGER: Inhibition of human HCE-T cell growth in a cell viability assay.

HD-MY-Z = assay type: functional, cell-based, Homo sapiens; conditions: Homo sapiens, HD-MY-Z;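 also: growth inhibition of HD-MY-Z cells, read out with a cell viability assay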
Description: SANGER: Inhibition of human HD-MY-Z cell growth in a cell viability assay.

HOP-62 = assay type: functional, cell-based, Homo sapiens; conditions: Homo sapiens, HOP-62;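 also: cell growth inhibition determined with a viability assay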
Description: SANGER: Inhibition of human HOP-62 cell growth in a cell viability assay.

IST-MES1 = assay type: functional, cell-based, Homo sapiens; conditions: Homo sapiens, IST-MES1;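 also: growth inhibition of IST-MES1 cells, measured with a cell viability assay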
Description: SANGER: Inhibition of human IST-MES1 cell growth in a cell viability assay.

KARPAS-299 = assay type: functional, cell-based; conditions: Homo sapiens
Description: SANGER: Inhibition of human KARPAS-299 cell growth in a cell viability assay.

KURAMOCHI = assay type: functional, cell-based; conditions: Homo sapiens;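 also: growth inhibition of KURAMOCHI cells, read out with a cell viability assay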
Description: SANGER: Inhibition of human KURAMOCHI cell growth in a cell viability assay.

L-363 = assay type: functional, cell-based; conditions: Homo sapiens
Description: SANGER: Inhibition of human L-363 cell growth in a cell viability assay.

LB1047-RCC = assay type: functional, cell-based, Homo sapiens; conditions: Homo sapiens, LB1047-RCC;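 also: inhibition of cell growth, determined with a cell viability assay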
Description: SANGER: Inhibition of human LB1047-RCC cell growth in a cell viability assay.

MZ7-mel = assay type: functional, cell-based, Homo sapiens; conditions: Homo sapiens, MZ7-mel;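 also: growth inhibition of human MZ7-mel cells, measured by a cell viability assay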
NB14 = assay type: functional, cell-based; conditions: Homo sapiens;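 also: growth inhibition of NB14 cells measured with a cell viability assay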
Description: SANGER: Inhibition of human NB14 cell growth in a cell viability assay.

NB6 = assay type: functional, cell-based, Homo sapiens; conditions: Homo sapiens, NB6;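 also: growth inhibition of NB6 cells, read out by a cell viability assay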
Description: SANGER: Inhibition of human NB6 cell growth in a cell viability assay.

NCI-N87 = assay type: functional, cell-based, Homo sapiens; conditions: Homo sapiens, NCI-N87;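 also: growth inhibition of human NCI-N87 cells, read out with a cell viability assay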
Description: SANGER: Inhibition of human NCI-N87 cell growth in a cell viability assay.

NOMO-1 = assay type: functional, cell-based; conditions: Homo sapiens;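 also: growth inhibition of human NOMO-1 cells measured by a cell viability assay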
OCI-AML2 = assay type: functional, cell-based; conditions: Homo sapiens;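 also: growth inhibition of OCI-AML2 cells, read out with a cell viability assay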
Description: SANGER: Inhibition of human OCI-AML2 cell growth in a cell viability assay.

RPMI-8226 = assay type: functional, cell-based; conditions: Homo sapiens
Description: SANGER: Inhibition of human RPMI-8226 cell growth in a cell viability assay.

RXF 393 = assay type: functional, cell-based; conditions: Homo sapiens;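 also: growth inhibition of human RXF 393 cells, read out with a cell viability assay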
SBC-1 = assay type: functional, cell-based; conditions: Homo sapiens;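 also: cell viability assay measuring growth inhibition of the SBC-1 cell line, IC50 being the concentration that halves growth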
Description: SANGER: Inhibition of human SBC-1 cell growth in a cell viability assay.

SK-MEL-2 = assay type: functional, cell-based, Homo sapiens; conditions: Homo sapiens, SK-MEL-2;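 also: growth inhibition of human SK-MEL-2 cells measured with a cell viability assay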
Description: SANGER: Inhibition of human SK-MEL-2 cell growth in a cell viability assay.

BB30-HNC = assay type: functional, cell-based, Homo sapiens; conditions: Homo sapiens, BB30-HNC;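 also: growth inhibition of the cultured cell line, read out by a cell viability assay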
Description: SANGER: Inhibition of human BB30-HNC cell growth in a cell viability assay.

Becker = assay type: functional, cell-based, Homo sapiens; conditions: Homo sapiens, Becker;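 also: growth inhibition of Becker cells, read out with a cell viability assay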
Description: SANGER: Inhibition of human Becker cell growth in a cell viability assay.

TE-10 = assay type: functional, cell-based, Homo sapiens; conditions: Homo sapiens, TE-10;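 also: growth inhibition of TE-10 cells, measured by a cell viability assay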
Description: SANGER: Inhibition of human TE-10 cell growth in a cell viability assay.

TE-9 = assay type: functional, cell-based, Homo sapiens; conditions: Homo sapiens, TE-9;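 also: cell growth inhibition, measured with a cell viability readout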
Description: SANGER: Inhibition of human TE-9 cell growth in a cell viability assay.

KP-N-YN = assay type: functional, cell-based; conditions: Homo sapiens;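 also: growth inhibition of KP-N-YN cells, read out with a cell viability assay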
Description: SANGER: Inhibition of human KP-N-YN cell growth in a cell viability assay.

CO[C@H]1C[C@@H]2CC[C@@H](C)[C@@](O)(O2)C(=O)C(=O)N2CCCC[C@H]2C(=O)O[C@H]([C@H](C)C[C@@H]2CC[C@@H](O)[C@H](OC)C2)CC(=O)[C@H](C)/C=C(\C)[C@@H](O)[C@@H](OC)C(=O)[C@H](C)C[C@H](C)/C=C/C=C/C=C/1C [SIROLIMUS]
IC50 (COLO-829): > 0.1 µM
IC50 (EKVX): > 0.1 µM
IC50 (ES8): > 0.1 µM
IC50 (EW-16): 0.0269 µM
IC50 (GAK): > 0.1 µM
IC50 (GI-ME-N): > 0.1 µM
IC50 (HCC2218): > 0.1 µM
IC50 (HCE-T): > 0.1 µM
IC50 (HD-MY-Z): > 0.1 µM
IC50 (HOP-62): > 0.1 µM
IC50 (IST-MES1): > 0.1 µM
IC50 (KARPAS-299): 0.0618 µM
IC50 (KURAMOCHI): > 0.1 µM
IC50 (L-363): 0.0447 µM
IC50 (LB1047-RCC): 0.0347 µM
IC50 (MZ7-mel): > 0.1 µM
IC50 (NB14): > 0.1 µM
IC50 (NB6): > 0.1 µM
IC50 (NCI-N87): > 0.1 µM
IC50 (NOMO-1): > 0.1 µM
IC50 (OCI-AML2): > 0.1 µM
IC50 (RPMI-8226): 0.00119 µM
IC50 (RXF 393): > 0.1 µM
IC50 (SBC-1): > 0.1 µM
IC50 (SK-MEL-2): > 0.1 µM
IC50 (BB30-HNC): > 0.1 µM
IC50 (Becker): 0.0411 µM
IC50 (TE-10): 0.0033 µM
IC50 (TE-9): > 0.1 µM

CNC(=O)c1cc(Oc2ccc(NC(=O)Nc3ccc(Cl)c(C(F)(F)F)c3)cc2)ccn1 [SORAFENIB]
IC50 (COLO-829): > 4 µM
IC50 (EKVX): > 4 µM
IC50 (ES8): > 4 µM
IC50 (EW-16): > 4 µM
IC50 (GI-ME-N): > 4 µM
IC50 (HCC2218): 3.12 µM
IC50 (HCE-T): > 4 µM
IC50 (HD-MY-Z): > 4 µM
IC50 (HOP-62): 0.851 µM
IC50 (IST-MES1): > 4 µM
IC50 (KARPAS-299): > 4 µM
IC50 (KP-N-YN): > 4 µM
IC50 (KURAMOCHI): > 4 µM
IC50 (L-363): > 4 µM
IC50 (LB1047-RCC): > 4 µM
IC50 (MZ7-mel): 3.66 µM
IC50 (NB14): > 4 µM
IC50 (NB6): > 4 µM
IC50 (NOMO-1): > 4 µM
IC50 (OCI-AML2): > 4 µM
IC50 (RPMI-8226): > 4 µM
IC50 (RXF 393): > 4 µM
IC50 (SBC-1): > 4 µM
IC50 (SK-MEL-2): > 4 µM
IC50 (Becker): > 4 µM
IC50 (TE-10): > 4 µM
IC50 (TE-9): > 4 µM

CCC(=O)N1CCN(c2ccc(-n3c(=O)ccc4cnc5ccc(-c6cnc7ccccc7c6)cc5c43)cc2C(F)(F)F)CC1 [TORIN1]
IC50 (COLO-829): 0.207 µM
IC50 (EKVX): 0.445 µM
IC50 (ES8): 0.0184 µM
IC50 (EW-16): 0.0119 µM
IC50 (GAK): 0.0319 µM
IC50 (GI-ME-N): 0.18 µM
IC50 (HCC2218): 0.472 µM
IC50 (HCE-T): 0.109 µM
IC50 (HD-MY-Z): 0.0243 µM
IC50 (HOP-62): 0.0356 µM
IC50 (IST-MES1): 0.235 µM
IC50 (KARPAS-299): 0.122 µM
IC50 (KURAMOCHI): 0.0241 µM
IC50 (L-363): 0.00284 µM
IC50 (LB1047-RCC): 0.0249 µM
IC50 (MZ7-mel): 0.0261 µM
IC50 (NB14): > 1.2 µM
IC50 (NB6): 0.0527 µM
IC50 (NOMO-1): 0.4 µM
IC50 (OCI-AML2): 0.0287 µM
IC50 (RPMI-8226): 0.00651 µM
IC50 (RXF 393): 0.0946 µM
IC50 (SBC-1): 0.111 µM
IC50 (SK-MEL-2): 0.464 µM
IC50 (BB30-HNC): 0.0573 µM
IC50 (Becker): 0.0642 µM
IC50 (TE-10): 0.0331 µM
IC50 (TE-9): 0.29 µM

Cc1cc(Nc2cc(N3CCN(C)CC3)nc(Sc3ccc(NC(=O)C4CC4)cc3)n2)n[nH]1 [TOZASERTIB]
IC50 (COLO-829): > 2 µM
IC50 (EKVX): > 2 µM
IC50 (ES8): 0.0461 µM
IC50 (EW-16): 0.238 µM
IC50 (GI-ME-N): > 2 µM
IC50 (HCC2218): > 2 µM
IC50 (HCE-T): > 2 µM
IC50 (HD-MY-Z): > 2 µM
IC50 (HOP-62): 0.863 µM
IC50 (IST-MES1): > 2 µM
IC50 (KARPAS-299): > 2 µM
IC50 (KURAMOCHI): 1.79 µM
IC50 (L-363): > 2 µM
IC50 (LB1047-RCC): > 2 µM
IC50 (MZ7-mel): > 2 µM
IC50 (NB14): > 2 µM
IC50 (NB6): 0.773 µM
IC50 (NOMO-1): > 2 µM
IC50 (OCI-AML2): 0.644 µM
IC50 (RPMI-8226): > 2 µM
IC50 (RXF 393): > 2 µM
IC50 (SBC-1): 1.13 µM
IC50 (SK-MEL-2): > 2 µM
IC50 (BB30-HNC): 0.226 µM
IC50 (Becker): > 2 µM
IC50 (TE-10): 1.13 µM
IC50 (TE-9): > 2 µM
